Experimental data published in patent US20250257061A1, “COMPOSITIONS AND METHODS FOR TREATING CANCER AND REDUCING WNT MEDIATED EFFECTS” (StemSynergy Therapeutics, Inc., priority 2024, published 2025).
Where two headings read alike, the source gives them in different places.

Key:
[1] = test system: Wnt-dependent HCT116 cell line; assay: Viability assay using Wnt-dependent HCT116 cell line (Cell Titer Glo); assay type: cell-based; settings: Homo sapiens, HCT-116, HCT116 cells, read-out: Viability IC50 category
Procedure: All compounds were tested using the human cell line HEK STF293. This cell line carries a Wnt reporter (TCF/LEF1 promoter), which drives expression of the firefly luciferase protein. The level of Wnt activity is directly correlated with the level of luciferase activity (determined using a simple assay). Compounds that inhibit Wnt signaling by reducing luciferase activity in these two cell lines are further tested biochemically. […] Compounds were further tested in a Viability assay using Wnt-dependent HCT116 cell line. HEK293 cells were seeded in a 6-well plate at approximately 8.0×10^5 cells (2 mL per well). On the first day, Wnt3a-conditioned media (1:1) and compounds (1:100) were added to the plated cells. The final concentrations of compounds were 1 μM, 500 nM, and 100 nM. Vehicle (DMSO) and a Wnt3a-conditioned media plus Vehicle samples were also prepared as controls. Lysates were collected (with non-denaturing lysis buffer) after 24 hours incubation, and protein concentrations determined by Bradford Assay. Immunoblotting with an anti-beta-catenin antibody (equivalent amounts of protein/lane for each condition) were subsequently performed to determine beta-catenin levels. HCT116 cells were seeded at 2,500 cells/well in a 96-well dish (Volume: 100 μL/well). On the second day, the 10 mM stock solution of each test compound was thawed at room temperature. Dilutions of the test compound were prepared in DMSO in a V-bottom 96-well plate. The stock compound solution, DMSO-diluted compound solutions, and DMSO were further diluted 500-fold in cell culture media, and 100 μL of the compound- or DMSO-containing cell culture media was added to each well of the cells. […] The final DMSO concentration was 0.1% in all wells. On the fifth day, 150 μL of media was removed from each well. 50 μL/well Cell Titer Glo reagent (Promega) was added to each well. The plate was shaken at 130 rpm for 15 minutes at room temperature, and the cell viability was determined using a luminescence plate reader. All compounds were tested using the human cell line HEK STF293. This cell line carries a Wnt reporter (TCF/LEF1 promoter), which drives expression of the firefly luciferase protein. The level of Wnt activity is directly correlated with the level of luciferase activity (determined using a simple assay). Compounds that inhibit Wnt signaling by reducing luciferase activity in these two cell lines are further tested biochemically. […] Compounds were further tested in a Viability assay using Wnt-dependent HCT116 cell line. HEK293 cells were seeded in a 6-well plate at approximately 8.0×10^5 cells (2 mL per well). On the first day, Wnt3a-conditioned media (1:1) and compounds (1:100) were added to the plated cells. The final concentrations of compounds were 1 μM, 500 nM, and 100 nM. Vehicle (DMSO) and a Wnt3a-conditioned media plus Vehicle samples were also prepared as controls. Lysates were collected (with non-denaturing lysis buffer) after 24 hours incubation, and protein concentrations determined by Bradford Assay. Immunoblotting with an anti-beta-catenin antibody (equivalent amounts of protein/lane for each condition) were subsequently performed to determine beta-catenin levels. HCT116 cells were seeded at 2,500 cells/well in a 96-well dish (Volume: 100 μL/well). On the second day, the 10 mM stock solution of each test compound was thawed at room temperature. Dilutions of the test compound were prepared in DMSO in a V-bottom 96-well plate. The stock compound solution, DMSO-diluted compound solutions, and DMSO were further diluted 500-fold in cell culture media, and 100 μL of the compound- or DMSO-containing cell culture media was added to each well of the cells. […] The final DMSO concentration was 0.1% in all wells. On the fifth day, 150 μL of media was removed from each well. 50 μL/well Cell Titer Glo reagent (Promega) was added to each well. The plate was shaken at 130 rpm for 15 minutes at room temperature, and the cell viability was determined using a luminescence plate reader. […]

[2] = test system: Wnt reporter (TCF/LEF1 promoter); assay: HEK STF293 Wnt reporter (TOPFlash) luciferase assay, Steady Glo normalised to Cell Titer; assay type: cell-based, human; settings: Homo sapiens, STF/293, HEK STF293 cells, Wnt3a-conditioned media, read-out: TOPFlash IC50 category
Procedure: All compounds were tested using the human cell line HEK STF293. This cell line carries a Wnt reporter (TCF/LEF1 promoter), which drives expression of the firefly luciferase protein. The level of Wnt activity is directly correlated with the level of luciferase activity (determined using a simple assay). Compounds that inhibit Wnt signaling by reducing luciferase activity in these two cell lines are further tested biochemically. […] Compounds were further tested in a Viability assay using Wnt-dependent HCT116 cell line. Compounds were prepared as 10 mM stocks for each compound in DMSO. Dilutions were prepared in a 96-well plate in DMSO. The stock dilutions are as follows: 10 mM, 1 mM, 100 μM, 10 μM, 100 nM, and 10 nM. Plates were sealed and stored at −20° C. […] On the first day, Wnt3a-conditioned media (1:1) were added along with diluted compounds (1:100). […] The final concentrations should therefore be 100 μM, 10 μM, 1 μM, 100 nM, 10 nM, and 1 nM. On the second day, the media was removed and 75 μL of Passive Lysis Buffer (Promega) is added to each well. The plate was shaken at 130 rpm for 15 minutes. For the Steady Glo assay, 45 μL of the lysis was removed and added to a white 96-well plate containing 45 μL/well of Steady Glo solution (Promega). For the Cell Titer assay, 25 μL of the lysis was transferred to a white 96-well plate containing 25 μL/well of Cell Titer solution (Promega). Both Steady Glo and Cell Titer assays were read with a luminescence plate reader. When determining EC50, the Steady Glo values were divided by the Cell Titer values to normalize for cell number. All compounds were tested using the human cell line HEK STF293. This cell line carries a Wnt reporter (TCF/LEF1 promoter), which drives expression of the firefly luciferase protein. The level of Wnt activity is directly correlated with the level of luciferase activity (determined using a simple assay). Compounds that inhibit Wnt signaling by reducing luciferase activity in these two cell lines are further tested biochemically. […] Compounds were further tested in a Viability assay using Wnt-dependent HCT116 cell line. Compounds were prepared as 10 mM stocks for each compound in DMSO. Dilutions were prepared in a 96-well plate in DMSO. The stock dilutions are as follows: 10 mM, 1 mM, 100 μM, 10 μM, 100 nM, and 10 nM. Plates were sealed and stored at −20° C. […] On the first day, Wnt3a-conditioned media (1:1) were added along with diluted compounds (1:100). […] The final concentrations should therefore be 100 μM, 10 μM, 1 μM, 100 nM, 10 nM, and 1 nM. On the second day, the media was removed and 75 μL of Passive Lysis Buffer (Promega) is added to each well. The plate was shaken at 130 rpm for 15 minutes. For the Steady Glo assay, 45 μL of the lysis was removed and added to a white 96-well plate containing 45 μL/well of Steady Glo solution (Promega). For the Cell Titer assay, 25 μL of the lysis was transferred to a white 96-well plate containing 25 μL/well of Cell Titer solution (Promega). Both Steady Glo and Cell Titer assays were read with a luminescence plate reader. When determining EC50, the Steady Glo values were divided by the Cell Titer values to normalize for cell number. All compounds were tested using the human cell line HEK STF293. This cell line carries a Wnt reporter (TCF/LEF1 promoter), which drives expression of the firefly luciferase protein. The level of Wnt activity is directly correlated with the level of luciferase activity (determined using a simple assay). Compounds that inhibit Wnt signaling by reducing luciferase activity in these two cell lines are further tested biochemically. […] Compounds were further tested in a Viability assay using Wnt-dependent HCT116 cell line. Compounds were prepared as 10 mM stocks for each compound in DMSO. Dilutions were prepared in a 96-well plate in DMSO. The stock dilutions are as follows: 10 mM, 1 mM, 100 μM, 10 μM, 100 nM, and 10 nM. Plates were sealed and stored at −20° C. […]

[3] = Examples for Formulae (VIII), (IX), and (X)
[4] = Examples for Formulae (I), (II), and (III)
[5] = Examples for Formulae (IV), (V), (VI), and (VII)

| SMILES | IC50 [1, 3] [nM] | IC50 [2, 3] [nM] | IC50 [1, 4] [nM] | IC50 [2, 4] [nM] | IC50 [1, 5] [nM] | IC50 [2, 5] [nM] |
| --- | --- | --- | --- | --- | --- | --- |
| CS(=O)(=O)c1ccc(-n2nccc2C(=O)Nc2nc(-c3ccccn3)co2)cc1 [Example 1] | < 200 | 200 to 500 | – | – | – | – |
| Cc1c(C(=O)Nc2nc(-c3ccccn3)cs2)cnn1Cc1ccccc1 [Example 1] | – | – | 1000 to 10000 | 1000 to 10000 | – | – |
| Cc1onc(-c2cccs2)c1C(=O)Nc1nc(-c2ccccn2)cs1 [Example 1] | – | – | – | – | 200 to 500 | < 200 |
| Cn1cc(C(=O)Nc2nc(-c3ccccn3)cs2)c(-c2ccccc2Cl)n1 [Example 2] | – | – | 500 to 1000 | 1000 to 10000 | – | – |
| O=C(Nc1nc(-c2ccccn2)cs1)c1ccc(=O)n(-c2ccc(F)cc2)c1 [Example 2] | 500 to 1000 | 200 to 500 | – | – | – | – |
| O=C(Nc1nc(-c2ccccn2)cs1)c1ocnc1-c1ccccc1 [Example 2] | – | – | – | – | 200 to 500 | < 200 |
| COc1ccc(Cn2cc(C(=O)Nc3nc(-c4ccccn4)cs3)cn2)cc1 [Example 3] | – | – | 1000 to 10000 | 1000 to 10000 | – | – |
| Cc1noc(-c2ccccc2)c1C(=O)Nc1nc(-c2ccccn2)cs1 [Example 3] | – | – | – | – | 200 to 500 | 200 to 500 |
| O=C(Nc1nc(-c2ccccn2)cs1)c1ccc(=O)n(-c2ccccc2F)c1 [Example 3] | 500 to 1000 | 200 to 500 | – | – | – | – |
| Cc1nn(Cc2ccccc2)c(C)c1C(=O)Nc1nc(-c2ccccn2)cs1 [Example 4] | – | – | 1000 to 10000 | 500 to 1000 | – | – |
| Cc1onc(-c2ccc(F)cc2)c1C(=O)Nc1nc(-c2ccccn2)cs1 [Example 4] | – | – | – | – | 200 to 500 | < 200 |
| O=C(Nc1nc(-c2ccccn2)cs1)c1ccc(=O)n(Cc2ccc(F)cc2)c1 [Example 4] | 500 to 1000 | 500 to 1000 | – | – | – | – |
| Cc1nn(-c2ccc(F)cc2)c(C)c1C(=O)Nc1nc(-c2ccccn2)cs1 [Example 5] | – | – | 1000 to 10000 | 1000 to 10000 | – | – |
| Cc1onc(-c2cccc(F)c2)c1C(=O)Nc1nc(-c2ccccn2)cs1 [Example 5] | – | – | – | – | 200 to 500 | 200 to 500 |
| O=C(Nc1nc(-c2ccccn2)cs1)c1ccc(=O)n(Cc2ccccc2Cl)c1 [Example 5] | 200 to 500 | 200 to 500 | – | – | – | – |
| Cc1nn(Cc2ccc(F)cc2)c(C)c1C(=O)Nc1nc(-c2ccccn2)cs1 [Example 7] | – | – | 500 to 1000 | 500 to 1000 | – | – |
| Cc1onc(-c2ccccc2F)c1C(=O)Nc1nc(-c2ccccn2)cs1 [Example 7] | – | – | – | – | 200 to 500 | 200 to 500 |
| O=C(Nc1nc(-c2ccccn2)cs1)c1ccc(=O)n(Cc2ccc(C(F)(F)F)cc2)c1 [Example 7] | 200 to 500 | 200 to 500 | – | – | – | – |
| Cc1nc(-c2ccc(F)cc2)c(C(=O)Nc2nc(-c3ccccn3)cs2)o1 [Example 8] | – | – | – | – | < 200 | < 200 |
| Cc1nn(-c2ccc(F)cc2F)c(C)c1C(=O)Nc1nc(-c2ccccn2)cs1 [Example 8] | – | – | 500 to 1000 | 500 to 1000 | – | – |
| O=C(Nc1nc(-c2ccccn2)cs1)c1cc(Cl)c(=O)n(Cc2ccc(C(F)(F)F)cc2)c1 [Example 8] | 200 to 500 | 500 to 1000 | – | – | – | – |
| Cc1nc(-c2ccc(Cl)cc2)c(C(=O)Nc2nc(-c3ccccn3)cs2)o1 [Example 9] | – | – | – | – | < 200 | < 200 |
| Cc1nn(Cc2ccc(F)cc2)c(Cl)c1C(=O)Nc1nc(-c2ccccn2)cs1 [Example 9] | – | – | 500 to 1000 | 500 to 1000 | – | – |
| O=C(Nc1nc(-c2ccccn2)cs1)c1ccn(Cc2ccc(F)cc2)c(=O)c1 [Example 9] | 1000 to 10000 | 1000 to 10000 | – | – | – | – |
| Cc1ccc(Cn2nc(C)c(C(=O)Nc3nc(-c4ccccn4)cs3)c2C)cc1 [Example 10] | – | – | 1000 to 10000 | 500 to 1000 | – | – |
| Cc1nc(-c2ccccc2F)c(C(=O)Nc2nc(-c3ccccn3)cs2)o1 [Example 10] | – | – | – | – | 200 to 500 | < 200 |
| O=C(Nc1nc(-c2ccccn2)cs1)c1ccn(Cc2ccc(C(F)(F)F)cc2)c(=O)c1 [Example 10] | 500 to 1000 | 500 to 1000 | – | – | – | – |
| Cc1nn(-c2ccccc2Cl)c(C(F)F)c1C(=O)Nc1nc(-c2ccccn2)cs1 [Example 12] | – | – | 500 to 1000 | 200 to 500 | – | – |
| O=C(Nc1nc(-c2ccccn2)cs1)c1cccnc1-c1ccc(F)cc1 [Example 12] | 500 to 1000 | 200 to 500 | – | – | – | – |
| O=C(Nc1nc(-c2ccccn2)cs1)c1ocnc1-c1ccc(F)cc1F [Example 12] | – | – | – | – | 200 to 500 | 200 to 500 |
